Several values for one entry are separate records, joined by “and”; a condition that tells them apart may be missing. Identical values can stand only once.
What was measured:
[1] = tested on: MALT1 protein in DLBCL cells; set-up: method as in PMID 30024860, PMID 23238017; details: result in words; cited from earlier work
human primary T cells = experiment: Human T cell apoptosis, annexin V; assay type: cell-based
Description: Annexin V Alexa 488
(ThermoFisher Scientific, Cat# A13201) and SYTOX Blue Dead Cell (ThermoFisher Scientific, Cat# S34857) stains were used to detect apoptosis in DLBCL cells after treatment with 1 µM compounds for 8 days in TMD8 and OCI-Ly1 and for 5 days in OCI-Ly3 cells, then analyzed with flow cytometry. The percentages of cells in early and late apoptosis were combined for […]
quantification. […]
Human T cell apoptosis. Human CD4/CD8 T cells were isolated from blood using Pan T Cell Isolation Kit (Miltenyi Biotec, Cat# 130-096-535), IRB exemption STUDY21080109. T cells were incubated with DynabeadsTM Human T-Activator CD3/CD28 (Thermo Fisher Scientific, Cat# 11131D) for 72 hours after which cells were grown in RPMI containing 10% FBS and IL-2 (Peprotech, Cat# 200-02). T cells were treated with M1i-124 (1 µM) or DMSO control with media change/drug treatment every 2-4 days. Apoptosis was evaluated on day 6 as described previously except that annexin V 647 was utilized (Invitrogen, A23204). Data is from 3 independent donors. […]

OCI-Ly1 cells = experiment: CellTrace Violet dilution/cell division assay; assay type: cell-based, human; details: OCI-Ly1, 1 μM
Description: (§1) Cell proliferation, viability, and apoptosis assays. […]
(§2) CellTrace Violet reagent (ThermoFisher, Cat#
(§3) C34571) was used as a cell division tracking dye for OCI-Ly1, OCI-Ly3, and TMD8 cells treated with 1 μM of compound M1i-124 or DMSO control, where the intensity of the staining decreases with each round of cell division. At days 0 and 6 after staining of DMSO- and compound-treated cells, CellTrace Violet fluorescence was measured on a BD LSR II instrument and Mean Fluorescent Intensity (MFI) was analyzed by FlowJo (version 10.8.0, BD). […]
(§4) For CellTrace Violet, CellTiter-glo, and Annexin V apoptosis assays, cell were cultured in media with 50% of the usual serum. […]

OCI-Ly3 cells = experiment: CellTrace Violet dilution/cell division assay; assay type: cell-based, human; details: OCI-Ly3, 1 μM
Description: as §1, §2, §3, §4

TMD8 cells [2] = experiment: CellTrace Violet dilution/cell division assay; assay type: cell-based, human; details: TMD8, 1 μM
Description: as §1, §2, §3, §4

COX1/2 = experiment: SAFETYscan78 off-target screen; details: off-target panel; read-out: EC50 or IC50, COX1/2
Source text: (§5) We also tested for possible adverse actions of M1i-124 on cytochrome P450 (CYP) enzymes that might limit its use in vivo. The CYP family of enzymes are responsible for phase I metabolism of many drugs and endogenous substances, and their inhibition can lead to unanticipated toxicities. […] To further test for potential off-target effects of M1i-124, we conducted an in vitro safety pharmacology profiling screen that measures the ability of a candidate compound to inhibit 78 key GPCRs, ion channels, nuclear hormone receptors, neurotransmitter transporters, kinases, and non-kinase enzymes. […]
(§6) cological profile for M1i-124. EC50 or I C50 f or act i vi t y agai nst sel ect GPCRs, i on channel s, nucl ear hor mone r eceptor s, ki nases, and neur otr ansmi tter tr anspor ter s i n an off-target activity screen of M1i-124 (Eurofins SAFETYscan78). When unmeasurable, the EC50 or IC50 for an indicated target is listed as >10 […]
(§7) (1 picture or pasted object on this page, not shown here)

INSR = biological target: T1, INSR (Homo sapiens, UniProt P06213); experiment: SAFETYscan78 off-target screen; details: off-target panel; read-out: EC50 or IC50, INSR
T1 construct: Eurofins SAFETYscan78
T1 sequence (P06213 28-1382): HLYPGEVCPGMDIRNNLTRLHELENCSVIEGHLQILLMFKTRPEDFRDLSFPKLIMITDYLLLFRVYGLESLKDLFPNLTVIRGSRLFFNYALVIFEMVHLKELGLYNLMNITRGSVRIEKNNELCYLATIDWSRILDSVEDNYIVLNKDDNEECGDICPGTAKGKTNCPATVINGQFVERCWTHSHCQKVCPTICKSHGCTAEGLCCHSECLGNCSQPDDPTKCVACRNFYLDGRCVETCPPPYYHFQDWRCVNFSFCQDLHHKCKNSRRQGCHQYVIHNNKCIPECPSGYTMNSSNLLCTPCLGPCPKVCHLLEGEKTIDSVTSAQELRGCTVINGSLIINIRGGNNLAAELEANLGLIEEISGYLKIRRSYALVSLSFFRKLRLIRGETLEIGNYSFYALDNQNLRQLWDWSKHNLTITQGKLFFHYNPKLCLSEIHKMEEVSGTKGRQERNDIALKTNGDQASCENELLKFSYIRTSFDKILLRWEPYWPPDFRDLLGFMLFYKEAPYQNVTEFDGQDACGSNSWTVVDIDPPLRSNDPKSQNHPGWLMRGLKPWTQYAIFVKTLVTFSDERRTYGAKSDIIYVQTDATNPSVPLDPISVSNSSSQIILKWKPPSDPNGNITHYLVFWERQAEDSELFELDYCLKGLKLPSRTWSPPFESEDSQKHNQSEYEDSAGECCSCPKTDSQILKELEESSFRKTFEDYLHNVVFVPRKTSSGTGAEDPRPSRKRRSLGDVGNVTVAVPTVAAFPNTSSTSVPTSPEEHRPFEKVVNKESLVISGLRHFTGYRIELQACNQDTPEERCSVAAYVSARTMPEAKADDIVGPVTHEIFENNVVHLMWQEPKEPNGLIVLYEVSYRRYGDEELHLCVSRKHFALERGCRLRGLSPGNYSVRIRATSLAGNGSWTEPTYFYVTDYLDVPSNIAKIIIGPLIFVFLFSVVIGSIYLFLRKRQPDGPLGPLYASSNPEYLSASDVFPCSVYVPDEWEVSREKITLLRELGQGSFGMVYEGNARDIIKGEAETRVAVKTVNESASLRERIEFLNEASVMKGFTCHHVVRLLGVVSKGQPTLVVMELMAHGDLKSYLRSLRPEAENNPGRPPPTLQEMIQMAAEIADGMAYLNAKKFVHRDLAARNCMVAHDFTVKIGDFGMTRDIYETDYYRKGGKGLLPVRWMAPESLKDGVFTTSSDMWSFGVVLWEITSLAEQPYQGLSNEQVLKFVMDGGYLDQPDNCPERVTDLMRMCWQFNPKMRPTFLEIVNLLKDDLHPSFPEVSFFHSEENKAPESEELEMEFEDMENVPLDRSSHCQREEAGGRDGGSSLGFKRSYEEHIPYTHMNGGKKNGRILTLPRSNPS
Source text: as §5, §6, §7

LCK = biological target: T2, LCK (Homo sapiens, UniProt P06239); experiment: SAFETYscan78 off-target screen; details: off-target panel; read-out: EC50 or IC50, LCK
T2 construct: Eurofins SAFETYscan78
T2 sequence (P06239 whole entry): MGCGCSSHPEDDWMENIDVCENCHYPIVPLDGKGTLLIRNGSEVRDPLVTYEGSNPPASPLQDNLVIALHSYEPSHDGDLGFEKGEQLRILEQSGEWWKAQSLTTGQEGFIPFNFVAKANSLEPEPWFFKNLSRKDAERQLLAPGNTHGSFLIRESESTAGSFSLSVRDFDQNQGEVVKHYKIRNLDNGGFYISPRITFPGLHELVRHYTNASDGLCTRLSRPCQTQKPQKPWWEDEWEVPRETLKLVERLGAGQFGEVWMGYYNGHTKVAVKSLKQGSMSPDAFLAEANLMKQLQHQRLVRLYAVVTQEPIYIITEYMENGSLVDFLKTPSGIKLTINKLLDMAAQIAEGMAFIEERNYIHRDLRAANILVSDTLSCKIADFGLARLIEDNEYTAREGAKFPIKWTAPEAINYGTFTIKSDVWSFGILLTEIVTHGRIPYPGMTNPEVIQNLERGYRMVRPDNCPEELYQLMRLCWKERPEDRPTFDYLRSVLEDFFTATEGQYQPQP
Source text: as §5, §6, §7

PDE4 = biological target: T3, PDE4 (Homo sapiens, UniProt Q08499); experiment: SAFETYscan78 off-target screen; details: off-target panel; read-out: EC50 or IC50, PDE4
T3 construct: Eurofins SAFETYscan78
T3 sequence (Q08499 303-809 limits assumed): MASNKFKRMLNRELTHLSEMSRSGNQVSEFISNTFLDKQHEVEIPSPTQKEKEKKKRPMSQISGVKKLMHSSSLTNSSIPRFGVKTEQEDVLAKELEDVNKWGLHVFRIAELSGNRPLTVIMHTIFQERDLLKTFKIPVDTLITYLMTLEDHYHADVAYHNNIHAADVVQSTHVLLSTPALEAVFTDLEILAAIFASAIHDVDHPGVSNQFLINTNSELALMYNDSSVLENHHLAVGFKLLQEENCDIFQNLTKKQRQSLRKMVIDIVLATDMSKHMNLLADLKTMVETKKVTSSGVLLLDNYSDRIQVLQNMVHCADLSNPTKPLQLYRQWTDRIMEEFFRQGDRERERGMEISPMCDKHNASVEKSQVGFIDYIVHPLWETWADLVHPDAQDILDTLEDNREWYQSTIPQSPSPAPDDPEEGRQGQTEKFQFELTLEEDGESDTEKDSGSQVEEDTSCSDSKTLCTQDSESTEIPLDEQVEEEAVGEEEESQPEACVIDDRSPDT
Source text: as §5, §6, §7

ROCK1 = biological target: T4, ROCK1 (Homo sapiens, UniProt Q13464); experiment: SAFETYscan78 off-target screen; details: off-target panel; read-out: EC50 or IC50, ROCK1
T4 construct: Eurofins SAFETYscan78
T4 sequence (Q13464 whole entry): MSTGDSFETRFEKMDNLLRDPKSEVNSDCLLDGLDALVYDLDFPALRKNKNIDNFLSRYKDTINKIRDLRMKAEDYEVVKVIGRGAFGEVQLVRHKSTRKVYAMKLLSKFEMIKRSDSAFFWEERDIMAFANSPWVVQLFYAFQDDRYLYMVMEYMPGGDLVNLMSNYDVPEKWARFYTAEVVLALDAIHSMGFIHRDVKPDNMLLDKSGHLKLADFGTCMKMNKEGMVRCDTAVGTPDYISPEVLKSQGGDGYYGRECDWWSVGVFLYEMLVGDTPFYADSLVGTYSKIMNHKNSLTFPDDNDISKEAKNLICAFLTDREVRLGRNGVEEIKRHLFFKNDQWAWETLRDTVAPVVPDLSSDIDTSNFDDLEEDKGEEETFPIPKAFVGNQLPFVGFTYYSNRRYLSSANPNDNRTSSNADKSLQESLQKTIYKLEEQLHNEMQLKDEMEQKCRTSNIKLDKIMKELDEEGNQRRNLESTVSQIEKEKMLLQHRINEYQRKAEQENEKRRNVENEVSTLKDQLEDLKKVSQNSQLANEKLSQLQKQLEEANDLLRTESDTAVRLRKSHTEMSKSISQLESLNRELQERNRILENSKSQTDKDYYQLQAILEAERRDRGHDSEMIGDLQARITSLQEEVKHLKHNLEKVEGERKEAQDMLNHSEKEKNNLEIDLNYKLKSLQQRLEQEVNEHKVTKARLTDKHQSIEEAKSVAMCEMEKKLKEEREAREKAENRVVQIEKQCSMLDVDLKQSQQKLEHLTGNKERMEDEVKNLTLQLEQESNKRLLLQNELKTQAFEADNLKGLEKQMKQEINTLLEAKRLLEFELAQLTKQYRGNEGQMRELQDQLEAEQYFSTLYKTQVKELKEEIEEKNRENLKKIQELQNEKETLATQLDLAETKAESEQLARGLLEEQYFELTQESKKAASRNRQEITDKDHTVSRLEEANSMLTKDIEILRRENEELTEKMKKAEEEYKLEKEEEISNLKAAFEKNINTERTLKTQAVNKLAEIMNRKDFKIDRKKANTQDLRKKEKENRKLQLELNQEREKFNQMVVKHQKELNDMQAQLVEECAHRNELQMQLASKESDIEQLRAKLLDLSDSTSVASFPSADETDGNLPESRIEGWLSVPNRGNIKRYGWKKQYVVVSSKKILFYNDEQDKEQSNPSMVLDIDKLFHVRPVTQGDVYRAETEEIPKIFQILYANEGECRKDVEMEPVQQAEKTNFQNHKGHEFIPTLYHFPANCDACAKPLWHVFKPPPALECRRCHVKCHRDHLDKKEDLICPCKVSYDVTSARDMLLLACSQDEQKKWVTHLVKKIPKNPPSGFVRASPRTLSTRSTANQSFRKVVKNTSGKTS
Source text: as §5, §6, §7

VEGFR2 = biological target: T5, VEGFR2 (Homo sapiens, UniProt P35968); experiment: SAFETYscan78 off-target screen; details: off-target panel; read-out: EC50 or IC50, VEGFR2
T5 construct: Eurofins SAFETYscan78
T5 sequence (P35968 20-1356): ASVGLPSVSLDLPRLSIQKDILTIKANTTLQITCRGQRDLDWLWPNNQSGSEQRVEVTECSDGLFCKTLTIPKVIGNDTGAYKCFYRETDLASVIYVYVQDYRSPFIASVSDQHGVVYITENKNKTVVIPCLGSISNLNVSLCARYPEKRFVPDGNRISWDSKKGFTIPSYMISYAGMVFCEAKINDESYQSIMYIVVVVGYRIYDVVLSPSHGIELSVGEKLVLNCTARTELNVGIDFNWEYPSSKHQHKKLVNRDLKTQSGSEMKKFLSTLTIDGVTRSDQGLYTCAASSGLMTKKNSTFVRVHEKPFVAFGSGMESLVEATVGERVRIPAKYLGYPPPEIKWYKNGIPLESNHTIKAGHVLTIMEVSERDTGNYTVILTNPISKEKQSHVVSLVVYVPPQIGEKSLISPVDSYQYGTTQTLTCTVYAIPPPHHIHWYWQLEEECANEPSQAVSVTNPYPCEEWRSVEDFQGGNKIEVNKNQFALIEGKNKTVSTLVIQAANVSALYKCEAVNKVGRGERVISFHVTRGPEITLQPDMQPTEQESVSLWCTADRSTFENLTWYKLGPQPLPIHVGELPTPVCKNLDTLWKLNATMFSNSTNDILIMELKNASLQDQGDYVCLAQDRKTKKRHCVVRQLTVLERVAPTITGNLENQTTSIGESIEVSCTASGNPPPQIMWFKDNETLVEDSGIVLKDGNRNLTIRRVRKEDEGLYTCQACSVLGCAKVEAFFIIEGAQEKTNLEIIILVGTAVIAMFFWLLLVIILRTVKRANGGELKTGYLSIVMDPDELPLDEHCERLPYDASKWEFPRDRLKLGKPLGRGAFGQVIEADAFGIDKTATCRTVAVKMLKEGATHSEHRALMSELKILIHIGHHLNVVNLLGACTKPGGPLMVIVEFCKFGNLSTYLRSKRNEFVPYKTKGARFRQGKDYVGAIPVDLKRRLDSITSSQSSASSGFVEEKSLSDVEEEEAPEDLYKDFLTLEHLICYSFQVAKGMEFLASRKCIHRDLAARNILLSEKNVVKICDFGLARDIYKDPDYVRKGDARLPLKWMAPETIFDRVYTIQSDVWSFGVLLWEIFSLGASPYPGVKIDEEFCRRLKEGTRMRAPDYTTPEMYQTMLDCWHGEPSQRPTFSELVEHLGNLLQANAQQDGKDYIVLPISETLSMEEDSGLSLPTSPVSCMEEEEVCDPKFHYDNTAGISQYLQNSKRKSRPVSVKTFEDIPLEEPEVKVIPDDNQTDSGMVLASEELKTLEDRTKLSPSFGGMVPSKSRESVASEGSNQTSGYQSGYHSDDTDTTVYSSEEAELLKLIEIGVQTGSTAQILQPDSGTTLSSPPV
Source text: as §5, §6, §7

hERG = biological target: T6, hERG (Homo sapiens, UniProt Q12809); experiment: SAFETYscan78 off-target screen; details: off-target panel; read-out: EC50 or IC50, hERG
T6 construct: Eurofins SAFETYscan78
Source text: as §5, §6, §7

C57BL/6 mice = experiment: Long-term (28 days) in vivo toxicity; set-up: species or system mouse
Description: Long-term in vivo toxicity experiments. WT C57/BL6 (The Jackson Laboratory) male and female mice were treated daily with 50 mg/kg M1i-124 or vehicle control for 28 days. At the time of sacrifice, blood was obtained for complete blood count, alanine transaminase, albumin, and total bilirubin (Abaxis). Livers from control and M1i-124 treated mice were collected for H&E analysis. […]

TMD8 cells [3] = experiment: CellTiter-Glo ATP viability; assay type: cell-based, human
[4] = 28 days, vs control, result in words

For `CN1CCCC(CN2c3ccccc3Sc3ccccc32)C1` (centres unmarked) [Mepazine, mepazine, reference compound], the MALT1 protein level [1] is listed as “unaffected”.

In the case of `O=S(=O)(NCc1ccc2c(c1)OCO2)c1ccc(Cc2ccc(S(=O)(=O)NCc3ccc4c(c3)OCO4)cc2)cc1` [M1i-124], the “Annexin (% positivity)” value (human primary T cells; human primary T cells, 1 µM, day 6) is reported as 5.305% and 5.353% and 4.227%, the “apoptosis of human primary T cells” value (human primary T cells; vs untreated control, result in words) is reported as “no difference” and the activity at 1 µM (OCI-Ly1 cells; Homo sapiens, OCI-Ly1, 144 h, day 6, read-out: CellTrace Violet dilution (Percent of Control)) is reported as 73.1%. The cell division (OCI-Ly1 cells; 6 days, result in words) was “minimal effect”, the “CellTrace Violet dilution (Percent of Control)” value (OCI-Ly1 cells; day 6, 1 µM) was 82.43% of Control and 74.14% of Control and 90.83% of Control and the cell division (OCI-Ly3 cells; 6 days, result in words) was “substantially reduced”. For the same compound, the “CellTrace Violet dilution (Percent of Control)” value (OCI-Ly3 cells; day 6, 1 µM) was 39.99% of Control and 46.66% of Control and 31.33% of Control and 60.69% of Control, the activity at 1 µM (TMD8 cells [2]; Homo sapiens, TMD8, 144 h, day 6, read-out: CellTrace Violet dilution (Percent of Control)) was 42.2% and the cell division (TMD8 cells [2]; 6 days, result in words) was “substantially reduced”. The “CellTrace Violet dilution (Percent of Control)” value (TMD8 cells [2]; day 6, 1 µM) was 48.11% of Control and 53.597% of Control and 42.644% of Control, the IC50 (COX1/2) was over 10 µM and the IC50 (INSR) was over 10 µM. It also gave an IC50 (LCK) of over 10 µM, an IC50 (PDE4) of over 10 µM and an IC50 (ROCK1) of over 10 µM. The IC50 (VEGFR2) was over 10 µM, the IC50 (hERG) was over 10 µM and the Albumin (C57BL/6 mice; 28 days, result in words) was “decrease in albumin”. For the same compound, the “alanine transaminase or total bilirubin” value (C57BL/6 mice; 28 days, result in words) was “did not result in a change”, the “liver histology (H&E)” value (C57BL/6 mice; 28 days, result in words) was “no appreciable difference” and the “blood counts (white blood cell count, hemoglobin, platelet count)” value (C57BL/6 mice; [4]) was “did not result in a statistically significant change”. For the same compound, the change in weight (C57BL/6 mice; [4]) was “did not result in a statistically significant change”, the “% change in body weight” value (C57BL/6 mice; C57BL/6 mice, 50 mg/kg daily, 28 days, 50 mg/kg) was 9.778% and 0% and 8.3% and 7.514% and 2.89% and 0.5714% and 7.273% and 4.7619% and the ALT (C57BL/6 mice; individual mice) was 35 U/L and 100 U/L and 26 U/L and 120 U/L and 180 U/L and 125 U/L. For the same compound, the Albumin (C57BL/6 mice; individual mice) was 3.5 g/dL and 2.5 g/dL and 2.1 g/dL and 1.9 g/dL and 3.2 g/dL, the Hemoglobin (C57BL/6 mice; individual mice) was 13.2 g/dL and 10.9 g/dL and 13.7 g/dL and 12.6 g/dL and 14 g/dL and 12 g/dL and 10.3 g/dL and 11.3 g/dL and 12.9 g/dL and the Platelets (C57BL/6 mice; individual mice) was 439 10^9/L and 412 10^9/L and 524 10^9/L and 394 10^9/L and 557 10^9/L and 522 10^9/L and 479 10^9/L and 381 10^9/L and 186 10^9/L. For the same compound, the “Total Bilirubin” value (C57BL/6 mice; individual mice) was 0.3 mg/dL and 0.4 mg/dL and 0.2 mg/dL, the WBC (C57BL/6 mice; individual mice) was 8.15 10^9/L and 3.97 10^9/L and 4.01 10^9/L and 2.58 10^9/L and 5.28 10^9/L and 4.82 10^9/L and 3.12 10^9/L and 3.23 10^9/L and 1.49 10^9/L and the in vivo tolerability (C57BL/6 mice; result in words) was “well tolerated with minimal toxicity”. The “Percent cell viability (ATP luminescence)” value (shortened to “Percent cell viability”) (TMD8 cells [3]; TMD8, M1i-124 (µM) 0.02) was 98.5399% and 121.237% and 91.8987%, the “Percent cell viability” value (TMD8 cells [3]; TMD8, M1i-124 (µM) 0.05) was 110.558% and 93.9485% and 106.792% and the “Percent cell viability” value (TMD8 cells [3]; TMD8, M1i-124 (µM) 0.1) was 120.312% and 100.889%. For the same compound, the “Percent cell viability” value (TMD8 cells [3]; TMD8, M1i-124 (µM) 0.2) was 81.1675% and 99.7783% and 71.7208%.

— PMC11996864, “A small-molecule inhibitor of BCL10-MALT1 interaction abrogates progression of diffuse large B cell lymphoma” (The Journal of Clinical Investigation, 2025)
